In this assay the target is T1, human GPR120 (Homo sapiens, UniProt Q5NUL3).
T1 construct: host or cells: HEK293 cells coexpressing Gqi5
T1 sequence (Q5NUL3 1-361): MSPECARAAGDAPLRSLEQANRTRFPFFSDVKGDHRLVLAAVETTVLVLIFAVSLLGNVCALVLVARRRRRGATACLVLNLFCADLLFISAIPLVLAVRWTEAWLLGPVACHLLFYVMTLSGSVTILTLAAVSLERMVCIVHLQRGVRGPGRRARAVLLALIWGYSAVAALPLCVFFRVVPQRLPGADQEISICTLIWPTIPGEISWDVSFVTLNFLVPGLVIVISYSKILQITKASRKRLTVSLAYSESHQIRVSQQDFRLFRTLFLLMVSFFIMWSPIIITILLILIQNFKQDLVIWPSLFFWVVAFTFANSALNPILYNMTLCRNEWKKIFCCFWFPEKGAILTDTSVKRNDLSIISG
Description: Intracellular Ca2+ (FLIPR Calcium 4, Flexstation) assay in human GPR120 stable HEK293 cell line coexpressing Gqi5. The class given is cell-based. The settings on record: for % Activity at 5 μM: 5 μM compound compared to the maximal activity of GW9508 at 6.7 μM (100%); for pEC50: human GPR120 stably expressing cells, 8 concentrations 0.00001 to 20 μM. Here is the method:
Human GPR120 stable cell line was purchased from Multispan Inc (26219 Eden Landing Road, Hayward, Calif. 94545). This GPR120 cell line was generated in HEK293 cells coexpressing Gqi5. In this cell line, the Flag epitope tag (DYKDDDDK) was fused to the amino terminus of human GPR120 protein.
The concentration of intracellular Ca^2+ was measured as described below. Human GPR120 cells were plated in 96 well plates (Poly-D-Lysine coated black/clear Plate, Greiner Bio-One) at 70,000 cells per well and cultured overnight in conditions of 37° C. and 5% CO2. A Ca^2+ assay dye stock solution was prepared by adding 10 mL of assay buffer (HBSS/20 mM HEPES, pH 7.4) to FLIPR Calcium 4 Assay Bulk Kit (Molecular Devices). The 10 mL of Ca^2+ assay dye solution was prepared by further diluting 0.5 mL of Ca^2+ assay dye stock solution with 10 mL of assay buffer. The medium of the cells was removed and immediately 100 μl of the Ca^2+ assay dye solution was dispensed into each well followed by incubation at 37° C. and 5% CO2 for 50 minutes to incorporate the Ca^2+ dye into the cells. The cell plate was then placed in the Flexstation (Molecular Devices) for 20 minutes at 37° C. Compounds were dissolved in 100% DMSO and diluted to desired concentrations with assay buffer and placed in Flexstation simultaneously with the cell plate for 20 minute incubation at 37° C. prior to reading. Fluorescence intensity was measured immediately following compound addition (25 μl/well) on the Flexstation at an excitation wavelength of 485 nm and an emission wavelength of 525 with 515 nm auto cutoff. The resulting increase in fluorescence intensities corresponds to increases in intracellular Ca^2+ levels.
Compounds were dissolved in 100% DMSO to a concentration of 20 mM to provide stock solutions. To determine activity against human GPR120, compounds were added with human GPR120 stably expressing cells (described above), at 8 desired concentrations ranging from 0.00001 to 20 μM, in 96 well plates and fluorescence intensities were measured for 90 seconds with 2-second intervals. An EC50 value (concentration of the GPR120 agonist where 50% of the agonist's maximal activity is observed) was calculated using the changes (Max-Min) of fluorescent intensity.
To determine percent activity for a tested compound, the fluorescence intensity value obtained at a particular concentration were compared to the maximal fluorescence intensity value obtained for reference compound GW9508 (4-[[(3-phenoxyphenyl)methyl]amino]benzene propanoic acid; British Journal of Pharmacology 2006 148, 619-628) that acts as a full agonist of the GPR120 receptor. The maximal activity of GW9508 is designated as 100% activity. Typically, the GW9508 activity reached a maximum at a concentration of approximately 6.7 μM. Activities of compounds that were tested according to this method are shown in Table 1 below and are expressed as % activity at 5 μM compound compared to the maximal activity of GW9508 at 6.7 μM.

Where [1] appears, read: read-out: EC50 between >1 μM and ≦10 μM.

pEC50: −log10 of the molar value. Like-named read-outs stand apart in the source and are kept apart here.

`O=C(O)CCc1cc(F)c(OCc2cnnn2-c2ccccc2)c(F)c1` [Example 5, 3-(3,5-difluoro-4-((1-phenyl-1H-1,2,3-triazol-5-yl)methoxy)phenyl)propanoic acid]: the “% Activity at 5 μM” value was 64%. The pEC50 under setting [1] was 5.00 to 6.00. In the case of `Cc1cc(COc2ccc(CC(C)CC(=O)O)cc2)n(-c2ccc(Cl)cc2)n1` (stereo not drawn) [Example 72, 4-(4-((1-(4-chlorophenyl)-3-methyl-1H-pyrazol-5-yl)methoxy)phenyl)-3-methylbutanoic acid], the “% Activity at 5 μM” value is listed as 100%. Under “read-out: EC50 ≦ 1 μM”, the pEC50 is not below 6.00. On to `Cc1cc(COc2c(F)cc(COCC(=O)O)cc2F)n(-c2ccc(Cl)cc2)n1` [Example 35, 2-(4-((1-(4-chlorophenyl)-3-methyl-1H-pyrazol-5-yl)methoxy)-3,5-difluorobenzyloxy)acetic acid], for which the “% Activity at 5 μM” value came out at 86%. Besides, the pEC50 (read-out: EC50 ≦ 1 μM) was not below 6.00. For `Cc1onc(-c2ccc(Cl)cc2)c1COc1c(F)cc(CCC(=O)O)cc1F` [Example 24, 3-(4-((3-(4-chlorophenyl)-5-methylisoxazol-4-yl)methoxy)-3,5-difluorophenyl)propanoic acid], the “% Activity at 5 μM” value is listed as 92%. The pEC50 (read-out: EC50 ≦ 1 μM) is not below 6.00. Regarding `Cc1cc(COc2c(F)cc(CC(C)(C)C(=O)O)cc2F)n(-c2ccc(Cl)cc2)n1` [Example 38, 3-(4-((1-(4-chlorophenyl)-3-methyl-1H-pyrazol-5-yl)methoxy)-3,5-difluorophenyl)-2,2-dimethylpropanoic acid], the “% Activity at 5 μM” value is on record as 100%. Besides, under setting [1], the pEC50 was 5.00 to 6.00. As for `Cc1cc(COc2cc3c(cc2F)C(CC(=O)O)CC3)n(-c2ccc(Cl)cc2)n1` (stereo not drawn) [Example 106, 2-(5-((1-(4-Chlorophenyl)-3-methyl-1H-pyrazol-5-yl)methoxy)-6-fluoro-2,3-dihydro-1H-inden-1-yl)acetic acid], the “% Activity at 5 μM” value came out at 88%. For the same compound, the pEC50 (read-out: EC50 ≦ 1 μM) was not below 6.00.

With `Cc1ccc(-n2nc(C)cc2COc2c(F)cc(CC(C)C(=O)O)cc2F)cc1` (stereo not drawn) [Example 84, 3-(3,5-difluoro-4-((3-methyl-1-p-tolyl-1H-pyrazol-5-yl)methoxy)phenyl)-2-methylpropanoic acid], the “% Activity at 5 μM” value came out at 106%. Moreover, the pEC50 (read-out: EC50 ≦ 1 μM) was not below 6.00. In the same order, the values of `Cc1cc(COc2c(F)cc(CC(C)C(=O)O)cc2F)c(-c2ccccc2)o1` (stereo not drawn) [Example 116, 3-(3,5-Difluoro-4-((5-methyl-2-phenylfuran-3-yl)methoxy)phenyl)-2-methylpropanoic acid] are 115% and not below 6.00.

With `O=C(O)CCc1cc(F)c(OCc2nccn2Cc2ccccc2)c(F)c1` [Example 11, 3-(4-((1-benzyl-1H-imidazol-2-yl)methoxy)-3,5-difluorophenyl)propanoic acid], the “% Activity at 5 μM” value is 75%. Besides, the pEC50 under setting [1] is 5.00 to 6.00. As to `CCc1ccc(-n2nc(C)cc2COc2ccc(CCCC(=O)O)cc2)cc1` [Example 129, 4-(4-((1-(4-ethylphenyl)-3-methyl-1H-pyrazol-5-yl)methoxy)phenyl)butanoic acid], the “% Activity at 5 μM” value was found to be 99%. Moreover, under “read-out: EC50 ≦ 1 μM”, the pEC50 is not below 6.00. In the case of `Cc1onc(-c2ccccc2)c1C(=O)COc1c(F)cc(CCC(=O)O)cc1F` [Example 26, 3-(3,5-difluoro-4-(2-(5-methyl-3-phenylisoxazol-4-yl)-2-oxoethoxy)phenyl)propanoic acid], the “% Activity at 5 μM” value was determined as 100%. Moreover, the pEC50 (read-out: EC50 ≦ 1 μM) is not below 6.00. In the same order, the values of `Cc1cc(COc2ccc3c(c2)CCC3CC(=O)O)n(-c2ccc3c(c2)CCC3)n1` (stereo not drawn) [Example 120, 2-(5-((1-(2,3-dihydro-1H-inden-5-yl)-3-methyl-1H-pyrazol-5-yl)methoxy)-2,3-dihydro-1H-inden-1-yl)acetic acid] are 94% and not below 6.00. Taken in the same sequence, the figures for `Cc1cc(COc2c(F)cc(CC(C)C(=O)O)cc2F)n(-c2ccc(C#N)cc2)n1` (stereo not drawn) [Example 80, 3-(4-((1-(4-cyanophenyl)-3-methyl-1H-pyrazol-5-yl)methoxy)-3,5-difluorophenyl)-2-methylpropanoic acid] were 92% and not below 6.00. On to `O=C(O)CCc1cc(F)c(OCc2snnc2-c2ccc(F)c(F)c2)c(F)c1` [Example 73, 3-(4-((4-(3,4-difluorophenyl)-1,2,3-thiadiazol-5-yl)methoxy)-3,5-difluorophenyl)propanoic acid], for which the “% Activity at 5 μM” value came out at 72%. For the same compound, the pEC50 (read-out: EC50 ≦ 1 μM) is not below 6.00. On to `COc1cc(CCC(=O)O)ccc1OCc1cc(C)nn1-c1ccc(Cl)cc1` [Example 133, 3-(4-((1-(4-chlorophenyl)-3-methyl-1H-pyrazol-5-yl)methoxy)-3-methoxyphenyl)propanoic acid], for which the “% Activity at 5 μM” value is 107%. Besides, the pEC50 under setting [1] was 5.00 to 6.00.

As for `Cc1cc(COc2c(F)cc(CC(F)C(=O)O)cc2F)n(-c2ccc(Cl)cc2)n1` (stereo not drawn) [Example 54, 3-(4-((1-(4-chlorophenyl)-3-methyl-1H-pyrazol-5-yl)methoxy)-3,5-difluorophenyl)-2-fluoropropanoic acid], the “% Activity at 5 μM” value worked out at 48%. The pEC50 (read-out: EC50 ≦ 1 μM) was not below 6.00.

Regarding `O=C(O)CC1CCc2cc(OCc3cc(C(F)(F)F)nn3-c3ccc(Cl)cc3)ccc21` (stereo not drawn) [Example 119, 2-(5-((1-(4-chlorophenyl)-3-(trifluoromethyl)-1H-pyrazol-5-yl)methoxy)-2,3-dihydro-1H-inden-1-yl)acetic acid], the “% Activity at 5 μM” value is on record as 92%. In the case of `O=C(O)CCc1cc(F)c(OCc2snnc2-c2ccc(Cl)cc2)c(F)c1` [Example 62, 3-(4-((4-(4-chlorophenyl)-1,2,3-thiadiazol-5-yl)methoxy)-3,5-difluorophenyl)propanoic acid], the “% Activity at 5 μM” value amounted to 88%. Also, the pEC50 (read-out: EC50 ≦ 1 μM) was not below 6.00. Take `Cc1noc(C)c1COc1c(F)cc(CCC(=O)O)cc1F` [Example 23, 3-(4-((3,5-dimethylisoxazol-4-yl)methoxy)-3,5-difluorophenyl)propanoic acid]: the “% Activity at 5 μM” value is given as 63%. In addition, the pEC50 under setting [1] was 5.00 to 6.00. Take `CCc1ccc(-n2nc(C(F)(F)F)cc2COc2c(F)cc(CC(C)C(=O)O)cc2F)cc1` (stereo not drawn) [Example 96, 3-(4-((1-(4-ethylphenyl)-3-(trifluoromethyl)-1H-pyrazol-5-yl)methoxy)-3,5-difluorophenyl)-2-methylpropanoic acid]: the “% Activity at 5 μM” value stood at 97%. For the setting “read-out: EC50 ≦ 1 μM”, the pEC50 is not below 6.00. For the compound `CCc1ccc(-n2nc(C)cc2COc2ccc3c(c2)CCCC3CC(=O)O)cc1` (stereo not drawn) [Example 123, 2-(6-((1-(4-ethylphenyl)-3-methyl-1H-pyrazol-5-yl)methoxy)-1,2,3,4-tetrahydronaphthalen-1-yl)acetic acid], the “% Activity at 5 μM” value worked out at 67%. Besides, the pEC50 (read-out: EC50 > 10 μM) was less than 5.00. As for `O=C(O)CCc1cc(F)c(OCc2cncn2-c2ccccc2)c(F)c1` [Example 3, 3-(3,5-difluoro-4-((1-phenyl-1H-imidazol-5-yl)methoxy)phenyl)propanoic acid], the “% Activity at 5 μM” value worked out at 70%. Besides, under setting [1], the pEC50 was 5.00 to 6.00. Turning to `CCc1ccc(-n2nc(C)cc2COc2ccc3c(c2)CCC3CC(=O)O)cc1` (stereo not drawn) [Example 121, 2-(5-((1-(4-ethylphenyl)-3-methyl-1H-pyrazol-5-yl)methoxy)-2,3-dihydro-1H-inden-1-yl)acetic acid], the “% Activity at 5 μM” value worked out at 94%. The pEC50 (read-out: EC50 ≦ 1 μM) was not below 6.00.

Broadly, the pEC50 is −log10 of the EC50, conventionally taken in molar units.

For the origin of these results see patent US20100216827A1 (Metabolex, Inc., priority 2008, published 2010).
